Measured values from patent publication US9163020B2, “Azaindole compounds, synthesis thereof, and methods of using the same” (Global Alliance for TB Drug Development, priority 2013, dated 2015).
In brackets after ≈: the same amount, converted by molar mass. Read-outs that look alike come from different tables or passages of the source.

System: Mycobacterium tuberculosis (Mtb) H37Rv ATCC 27294
Test: microbe, parasite or virus in culture
Assay type: cell-based
Conditions: Table 1, read-out: Mtb MIC

| SMILES | MIC (Mycobacterium tuberculosis) [µM] | MIC [µM] |
| --- | --- | --- |
| CC(c1c(F)cccc1F)n1cc(C(=O)NCCF)c2ncccc21 (stereo not drawn) [Compound 1, 1-(1-(2,6-difluorophenyl)ethyl)-N-(2-fluoroethyl)-1H-pyrrolo[3,2-b]pyridine-3-carboxamide] | 12.5 (≈ 4.34 µg/mL) | – |
| COc1ccc(F)cc1Cn1cc(C(=O)NCC2CC2)c2nccc(C)c21 [Compound 2, N-(Cyclopropylmethyl)-1-(5-fluoro-2-methoxybenzyl)-7-methyl-1H-pyrrolo[3,2-b]pyridine-3-carboxamide] | 6.25 (≈ 2.3 µg/mL) | – |
| COc1ccc(F)c(F)c1Cn1cc(C(=O)NCCF)c2ncccc21 [Compound 5, 1-(2,3-difluoro-6-methoxybenzyl)-N-(2-fluoroethyl)-1H-pyrrolo[3,2-b]pyridine-3-carboxamide] | < 0.66 | – |
| COCCNC(=O)c1cn(Cc2cc(F)cnc2OC)c2cccnc12 [Compound 6] | 1.3 (≈ 0.466 µg/mL) | – |
| COCCNC(=O)c1cn(Cc2ncnc(OC)c2C)c2cccnc12 [Compound 7, 1-((6-methoxy-5-methylpyrimidin-4-yl)methyl)-N-(2-methyl)-1H-pyrrolo[3,2-b]pyridine-3-carboxamide] | < 1.33 | – |
| COc1ncnc(Cn2cc(C(=O)NCCO)c3ncccc32)c1C [Compound 9, N-(2-hydroxyethyl)-1-((6-methoxy-5-methylpyrimidin-4-yl)methyl)-1H-pyrrolo[3,2-b]pyridine-3-carboxamide] | 13.9 (≈ 4.75 µg/mL) | – |
| COc1ncnc(Cn2cc(C(=O)NCC3CC3)c3ncc(C)cc32)c1C [Compound 10, N-(cyclopropylmethyl)-1-((6-methoxy-5-methylpyrimidin-4-yl)methyl)-6-methyl-1H-pyrrolo[3,2-b]pyridine-3-carboxamide] | 1.56 (≈ 0.57 µg/mL) | – |
| COCCNC(=O)c1cn(Cc2ncnc(OC)c2C)c2cc(C)cnc12 [Compound 11, 1-((6-methoxy-5-methylpyrimidin-4-yl)methyl)-N-(2-methoxyethyl)-6-methyl-1H-pyrrolo[3,2-b]pyridine-3-carboxamide] | 0.781 (≈ 0.289 µg/mL) | – |
| Cc1c(OCC(F)(F)F)ccnc1Cn1cc(C(=O)NCCF)c2ncccc21 [Compound 12, N-(2-fluoroethyl)-1-((3-methyl-4-(2,2,2-trifluoroethoxy)pyridin-2-yl)methyl)-1H-pyrrolo[3,2-b]pyridine-3-carboxamide] | 6.25 (≈ 2.56 µg/mL) | – |
| COc1ncc(C(F)(F)F)cc1Cn1cc(C(=O)NCCF)c2ncccc21 [Compound 13, N-(2-fluoroethyl)-1-((2-methoxy-5-(trifluoromethyl)pyridin-3-yl)methyl)-1H-pyrrolo[3,2-b]pyridine-3-carboxamide] | < 0.53 | – |
| COc1ncc(C#N)cc1Cn1cc(C(=O)NCCF)c2ncccc21 [Compound 14, 1-((5-cyano-2-methoxypyridin-3-yl)methyl)-N-(2-fluoroethyl)-1H-pyrrolo[3,2-b]pyridine-3-carboxamide] | 3.12 (≈ 1.1 µg/mL) | – |
| COc1ncc(F)cc1Cn1cc(C(=O)NCCF)c2ncc(C)cc21 [Compound 15, 1-((5-fluoro-2-methoxypyridin-3-yl)methyl)-N-(2-fluoroethyl)-6-methyl-1H-pyrrolo[3,2-b]pyridine-3-carboxamide] | 1.56 (≈ 0.562 µg/mL) | – |
| COc1ncnc(Cn2cc(C(=O)NC[C@H](C)F)c3ncc(C)cc32)c1C [Compound 16, (S)—N-(2-fluoropropyl)-1-((6-methoxy-5-methylpyrimidin-4-yl)methyl)-6-methyl-1H-pyrrolo[3,2-b]pyridine-3-carboxamide] | 0.156 (≈ 0.0579 µg/mL) | – |
| COc1nc(C)c(F)cc1Cn1cc(C(=O)NCCF)c2ncccc21 [Compound 18, 1-((5-fluoro-2-methoxy-6-methylpyridin-3-yl)methyl)-N-(2-fluoroethyl)-1H-pyrrolo[3,2-b]pyridine-3-carboxamide] | 0.781 (≈ 0.281 µg/mL) | – |
| COc1ncnc(Cn2cc(C(=O)NCCF)c3ncc(F)cc32)c1C [Compound 19, 6-fluoro-N-(2-fluoroethyl)-1-((6-methoxy-5-methylpyrimidin-4-yl)methyl)-1H-pyrrolo[3,2-b]pyridine-3-carboxamide] | 6.25 (≈ 2.26 µg/mL) | – |
| COc1ncnc(Cn2cc(C(=O)NCCF)c3ncc(Br)cc32)c1C [Compound 20, 6-bromo-N-(2-fluoroethyl)-1-((6-methoxy-5-methylpyrimidin-4-yl)methyl)-1H-pyrrolo[3,2-b]pyridine-3-carboxamide] | 0.781 (≈ 0.33 µg/mL) | – |
| Cc1cnc2c(C(=O)NCCF)cn(Cc3nccc(OCC(F)(F)F)c3C)c2c1 [Compound 21, N-(2-fluoroethyl)-6-methyl-1-((3-methyl-4-(2,2,2-trifluoroethoxy)pyridin-2-yl)methyl)-1H-pyrrolo[3,2-b]pyridine-3-carboxamide] | 1.56 (≈ 0.662 µg/mL) | – |
| COc1ncc(C(F)(F)F)cc1Cn1cc(C(=O)NC[C@H](C)F)c2ncc(C)cc21 [Compound 22, (S)—N-(2-fluoropropyl)-1-((2-methoxy-5-(trifluoromethyl)pyridin-3-yl)methyl)-6-methyl-1H-pyrrolo[3,2-b]pyridine-3-carboxamide] | < 0.391 | – |
| COc1ncnc(Cn2cc(C(=O)NCCOC(F)(F)F)c3ncccc32)c1C [Compound 23, 1-((6-methoxy-5-methylpyrimidin-4-yl)methyl)-N-(2-(trifluoromethoxy)ethyl)-1H-pyrrolo[3,2-b]pyridine-3-carboxamide] | 3.12 (≈ 1.28 µg/mL) | – |
| COc1ncc(F)cc1Cn1cc(C(=O)NC[C@H](C)F)c2ncc(C)cc21 [Compound 24, (S)-1-((5-fluoro-2-methoxypyridin-3-yl)methyl)-N-(2-fluoropropyl)-6-methyl-1H-pyrrolo[3,2-b]pyridine-3-carboxamide] | < 0.391 | – |
| COc1ncnc(Cn2cc(NC(=O)CC3CC3)c3ncccc32)c1C [Compound 25, 2-cyclopropyl-N-(1-((6-methoxy-5-methylpyrimidin-4-yl)methyl)-1H-pyrrolo[3,2-b]pyridin-3-yl)acetamide] | 25 (≈ 8.79 µg/mL) | – |
| Cc1cnc2c(C(=O)NCCF)cn(Cc3cc(F)c(C)nc3C)c2c1 [Compound 26, 1-((5-fluoro-2,6-dimethylpyridin-3-yl)methyl)-N-(2-fluoroethyl)-6-methyl-1H-pyrrolo[3,2-b]pyridine-3-carboxamide] | 3.12 (≈ 1.12 µg/mL) | – |
| Cc1cnc2c(C(=O)NCCO)cn(Cc3nccc(OCC(F)(F)F)c3C)c2c1 [Compound 27, N-(2-hydroxyethyl)-6-methyl-1-((3-methyl-4-(2,2,2-trifluoroethoxy)pyridin-2-yl)methyl)-1H-pyrrolo[3,2-b]pyridine-3-carboxamide] | 3.12 (≈ 1.32 µg/mL) | – |
| COc1ncnc(Cn2cc(C(=O)NC[C@@H](C)O)c3ncc(C)cc32)c1C [Compound 28, (R)—N-(2-hydroxypropyl)-1-((6-methoxy-5-methylpyrimidin-4-yl)methyl)-6-methyl-1H-pyrrolo[3,2-b]pyridine-3-carboxamide] | 6.25 (≈ 2.31 µg/mL) | – |
| Cc1cnc2c(C(=O)NCCF)cn(Cc3ncnc(N(C)C)c3C)c2c1 [Compound 29, 1-((6-(dimethylamino)-5-methylpyrimidin-4-yl)methyl)-N-(2-fluoroethyl)-6-methyl-1H-pyrrolo[3,2-b]pyridine-3-carboxamide] | 1.56 (≈ 0.578 µg/mL) | – |
| COc1ncnc(Cn2cc(C(=O)NCC(F)F)c3ncc(C)cc32)c1C [Compound 33, N-(2,2-difluoroethyl)-1-((6-methoxy-5-methylpyrimidin-4-yl)methyl)-6-methyl-1H-pyrrolo[3,2-b]pyridine-3-carboxamide] | – | <0.39 |
| Cc1cnc2c(C(=O)NCCO)cn(Cc3ncnc(OC(F)F)c3C)c2c1 [Compound 35, 1-((6-(Difluoromethoxy)-5-methylpyrimidin-4-yl)methyl)-N-(2-hydroxyethyl)-6-methyl-1H-pyrrolo[3,2-b]pyridine-3-carboxamide] | < 0.39 | – |
